The target in assay [1] is LXR β LBD protein (Homo sapiens (Human), UniProt P55055). The experiment in a line: LXR β radioligand binding assay (SPA, [3H]T0901317 competition). Conditions: competition with 15 nM [3H]T0901317, LXRβ LBD.
Assay [2] has as its target T1, LBD of LXRβ (Homo sapiens (Human), UniProt P55055). The experiment in a line: cell-based.
Assay [3] addresses T1, LBD of LXRβ.

What is called Ki is a dissociation constant, usually derived from enzyme kinetics or from competition with a known ligand. Higher therefore signals a looser hold on the target. One may read the EC50 as the concentration at which the effect is half-maximal. Lower therefore signals an effect from little substance.

Like-named read-outs stand apart in the source and are kept apart here.

LXR β LBD protein, sequence (P55055 222-460): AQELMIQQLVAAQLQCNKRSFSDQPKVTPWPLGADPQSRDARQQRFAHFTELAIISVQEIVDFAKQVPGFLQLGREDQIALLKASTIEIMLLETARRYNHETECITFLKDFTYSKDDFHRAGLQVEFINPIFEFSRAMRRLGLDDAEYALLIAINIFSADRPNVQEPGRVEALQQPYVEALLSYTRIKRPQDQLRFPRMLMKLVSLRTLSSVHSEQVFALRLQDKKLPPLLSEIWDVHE
T1 sequence (P55055 222-460): as above

The compound `CC(=O)c1cnc(N2CCn3c(nc4ccc(S(C)(=O)=O)cc43)C2C(C)C)nc1C(F)(F)F` (racemic) [Compound E1, 1-(2-(1-isopropyl-7-(methylsulfonyl)-3,4-dihydrobenzo[4,5]imidazo[1,2-a]pyrazin-2(1H)-yl)-4-(trifluoromethyl)pyrimidin-5-yl)ethanone] displayed a Ki in assay [1] of 191 nM. In assay [2], this compound returned an EC50 of 350 nM.

Take `CC(=O)c1cnc(N2CCn3c(cc4cc(CO)c(S(C)(=O)=O)cc43)C2C(C)C)nc1C(F)(F)F` (racemic) [Compound E26, (±)-1-(2-(8-(hydroxymethyl)-1-isopropyl-7-(methylsulfonyl)-3,4-dihydropyrazino[1,2-a]indol-2(1H)-yl)-4-(trifluoromethyl)pyrimidin-5-yl)ethanone]: in assay [1], affinity was put at a Ki of 7 nM. In assay [2], this compound displayed a concentration giving a half-maximal response (EC50) of 16 nM.

In turn, `CCCC(O)c1cnc(N2CCn3c(nc4cc(CO)c(S(C)(=O)=O)cc43)[C@H]2C(C)C)nc1C(F)(F)F` (single isomer, unassigned) [Compound E11a] registered a Ki in assay [1] of 14 nM. Besides, the midpoint of the response in assay [2], the EC50, lay at 68 nM.

In assay [1], `CCCC(O)c1cnc(N2CCn3c(nc4cc(CO)c(S(C)(=O)=O)cc43)[C@H]2C(C)C)nc1C(F)(F)F` (single isomer, unassigned) [Compound E11b] came in with an inhibition constant Ki of 23 nM. This compound also had an EC50 in assay [2] of 103 nM.

Take `CC(C)[C@@H]1c2cc3ccc(S(C)(=O)=O)cc3n2CCN1c1ncc(C(C)(C)O)c(C(F)(F)F)n1` [Compound E23a, (R)-2-(2-(1-isopropyl-7-(methylsulfonyl)-3,4-dihydropyrazino[1,2-a]indol-2(1H)-yl)-4-(trifluoromethyl)pyrimidin-5-yl)propan-2-ol]: the response in assay [3] was half-maximal at 306 nM (EC50). The compound also showed a Ki in assay [1] of 21 nM.

The compound `Cc1cnc(N2CCn3c(nc4cc(CO)c(S(C)(=O)=O)cc43)[C@H]2C(C)C)nc1C(F)(F)F` [Compound E21, (R)-(1-isopropyl-2-(5-methyl-4-(trifluoromethyl)pyrimidin-2-yl)-7-(methylsulfonyl)-1,2,3,4-tetrahydrobenzo[4,5]imidazo[1,2-a]pyrazin-8-yl)methanol] showed a Ki in assay [1] of 10 nM. In addition, the 50% effective concentration (EC50) in assay [2] was 10 nM.

The compound `CC(C)C1c2nc3ccc(S(C)(=O)=O)cc3n2CCN1c1ncc(CO)c(C(F)(F)F)n1` (racemic) [Compound E4, (2-(1-isopropyl-7-(methylsulfonyl)-3,4-dihydrobenzo[4,5]imidazo[1,2-a]pyrazin-2(1H)-yl)-4-(trifluoromethyl)pyrimidin-5-yl)methanol] came in with a Ki in assay [1] of 137 nM. In addition, the concentration for a half-maximal effect (EC50) in assay [2] turned out to be 293 nM.

In assay [3], `CC(C)[C@H]1c2cc3ccc(S(C)(=O)=O)cc3n2CCN1c1ncc(CO)c(C(F)(F)F)n1` [Compound E25b, (S)-(2-(1-isopropyl-7-(methylsulfonyl)-3,4-dihydropyrazino[1,2-a]indol-2(1H)-yl)-4-(trifluoromethyl)pyrimidin-5-yl)methanol] returned an EC50 of 10800 nM. Also, in assay [1], the Ki is more than 2500 nM.

The compound `CC(C)[C@H]1c2cc3ccc(S(C)(=O)=O)cc3n2CCN1c1ncc(C(C)(C)O)c(C(F)(F)F)n1` [Compound E23b, (S)-2-(2-(1-isopropyl-7-(methylsulfonyl)-3,4-dihydropyrazino[1,2-a]indol-2(1H)-yl)-4-(trifluoromethyl)pyrimidin-5-yl)propan-2-ol] displayed an EC50 in assay [3] of 1340 nM. Besides, in assay [1], the Ki turned out to be 2440 nM.

In assay [3], `CC(O)c1cnc(N2CCn3c(cc4ccc(S(C)(=O)=O)cc43)C2C(C)C)nc1C(F)(F)F` (single isomer, unassigned) [Compound E24b, 1-(2-(1-isopropyl-7-(methylsulfonyl)-3,4-dihydropyrazino[1,2-a]indol-2(1H)-yl)-4-(trifluoromethyl)pyrimidin-5-yl)ethanol] had a concentration giving a half-maximal response (EC50) of 150 nM. The compound further gave an inhibitory constant (Ki) in assay [1] of 20 nM.

`CC(O)c1cnc(N2CCn3c(cc4ccc(S(C)(=O)=O)cc43)C2C(C)C)nc1C(F)(F)F` (single isomer, unassigned) [Compound E24a, 1-(2-(1-isopropyl-7-(methylsulfonyl)-3,4-dihydropyrazino[1,2-a]indol-2(1H)-yl)-4-(trifluoromethyl)pyrimidin-5-yl)ethanol] gave a concentration giving a half-maximal response (EC50) in assay [3] of 134 nM. In assay [1], this compound came in with an inhibition constant (Ki) of 7 nM.

For `CC(C)[C@H]1c2nc3cc(CO)c(S(C)(=O)=O)cc3n2CCN1c1ncc(C(N)=O)c(C(F)(F)F)n1` (single isomer, unassigned) [Compound E15b], the Ki in assay [1] is more than 2500 nM. In addition, the EC50 in assay [2] was more than 20000 nM.

The compound `CC(O)c1cnc(N2CCn3c(cc4ccc(S(C)(=O)=O)cc43)C2C(C)C)nc1C(F)(F)F` (single isomer, unassigned) [Compound E24d, 1-(2-(1-isopropyl-7-(methylsulfonyl)-3,4-dihydropyrazino[1,2-a]indol-2(1H)-yl)-4-(trifluoromethyl)pyrimidin-5-yl)ethanol] returned an EC50 in assay [3] of more than 20000 nM. Besides, the inhibitory constant (Ki) in assay [1] was more than 2500 nM.

The compound `CC(C)[C@@H]1c2nc3cc(CO)c(S(C)(=O)=O)cc3n2CCN1c1ncc(C(C)(C)O)c(C(F)(F)F)n1` (single isomer, unassigned) [Compound E7a] gave a Ki in assay [1] of 14 nM. Besides, in assay [2], the 50% effective concentration (EC50) came to 23 nM.

As to `CC(C)[C@@H]1c2nc3cc(CO)c(S(C)(=O)=O)cc3n2CCN1c1ncc(C(=O)N(C)C)c(C(F)(F)F)n1` (single isomer, unassigned) [Compound E17a], in assay [1], affinity was put at a Ki of 220 nM. For the same compound, in assay [2], the concentration for a half-maximal effect (EC50) was more than 20000 nM.

On to `CC(C)[C@@H]1c2nc3cc(CO)c(S(C)(=O)=O)cc3n2CCN1c1ncc(C(N)=O)c(C(F)(F)F)n1` (single isomer, unassigned) [Compound E15a], for which the affinity in assay [1], expressed as Ki, was 240 nM. Further, the EC50 in assay [2] is more than 20000 nM.

Consider `CC(=O)c1cnc(N2CCn3c(cc4ccc(S(C)(=O)=O)cc43)[C@H]2C(C)C)nc1C(F)(F)F` [Compound E22a, (R)-1-(2-(1-isopropyl-7-(methylsulfonyl)-3,4-dihydropyrazino[1,2-a]indol-2(1H)-yl)-4-(trifluoromethyl)pyrimidin-5-yl)ethanone], for which, in assay [3], the EC50 was found to be 107 nM. In addition, in assay [1], the affinity corresponds to a Ki of 12 nM.

In assay [3], `CC(O)c1cnc(N2CCn3c(cc4ccc(S(C)(=O)=O)cc43)C2C(C)C)nc1C(F)(F)F` (single isomer, unassigned) [Compound E24c, 1-(2-(1-isopropyl-7-(methylsulfonyl)-3,4-dihydropyrazino[1,2-a]indol-2(1H)-yl)-4-(trifluoromethyl)pyrimidin-5-yl)ethanol] had a half-maximal effective concentration (EC50) of 18200 nM. Also, the affinity in assay [1] corresponds to a Ki of 1690 nM.

`CC(C)[C@H]1c2nc3cc(CO)c(S(C)(=O)=O)cc3n2CCN1c1ncc(C(=O)N(C)C)c(C(F)(F)F)n1` (single isomer, unassigned) [Compound E17b] showed a Ki in assay [1] of more than 2500 nM. This compound came in with a 50% effective concentration (EC50) in assay [2] of 4900 nM.

With `CC(C)C1c2cc3cc(CO)c(S(C)(=O)=O)cc3n2CCN1c1ncc(C(C)(C)O)c(C(F)(F)F)n1` (single isomer, unassigned) [Compound E27a, 2-(2-(8-(hydroxymethyl)-1-isopropyl-7-(methylsulfonyl)-3,4-dihydropyrazino[1,2-a]indol-2(1H)-yl)-4-(trifluoromethyl)pyrimidin-5-yl)propan-2-ol], in assay [3], the midpoint of the response, the EC50, lay at 10 nM. This compound returned a Ki in assay [1] of 2 nM.

As to `CC(C)[C@H]1c2nc3cc(CO)c(S(C)(=O)=O)cc3n2CCN1c1ncc(CO)c(C2CC2)n1` (single isomer, unassigned) [Compound E20b], the inhibition constant (Ki) in assay [1] was more than 2500 nM. In addition, the EC50 in assay [2] is more than 20000 nM.

On to `CC(C)[C@@H]1c2nc3cc(CO)c(S(C)(=O)=O)cc3n2CCN1c1ncc(CO)c(C2CC2)n1` (single isomer, unassigned) [Compound E20a], for which affinity in assay [1] was put at a Ki of 110 nM. Besides, the concentration for a half-maximal effect (EC50) in assay [2] was more than 20000 nM.

Take `CC(C)C1c2nc3ccc(S(C)(=O)=O)cc3n2CCN1c1ncc(C(C)(C)O)c(C(F)(F)F)n1` (racemic) [Compound E2, 2-(2-(1-isopropyl-7-(methylsulfonyl)-3,4-dihydrobenzo[4,5]imidazo[1,2-a]pyrazin-2(1H)-yl)-4-(trifluoromethyl)pyrimidin-5-yl)propan-2-ol]: the Ki in assay [1] came out at 176 nM. The same compound came in with an EC50 in assay [2] of 377 nM.

In assay [1], `CCOC(=O)c1cnc(N2CCn3c(nc4cc(CO)c(S(C)(=O)=O)cc43)[C@H]2C(C)C)nc1C(F)(F)F` [Compound E12, (R)-ethyl 2-(8-(hydroxymethyl)-1-isopropyl-7-(methylsulfonyl)-3,4-dihydrobenzo[4,5]imidazo[1,2-a]pyrazin-2(1H)-yl)-4-(trifluoromethyl)pyrimidine-5-carboxylate] returned a Ki of 6 nM. In assay [2], this compound gave an EC50 of 50 nM.

`COC(=O)c1cnc(N2CCn3c(nc4cc(CO)c(S(C)(=O)=O)cc43)[C@H]2C(C)C)nc1C(F)(F)F` [Compound E30, (R)-methyl 2-(8-(hydroxymethyl)-1-isopropyl-7-(methylsulfonyl)-3,4-dihydrobenzo[4,5]imidazo[1,2-a]pyrazin-2(1H)-yl)-4-(trifluoromethyl)pyrimidine-5-carboxylate] gave a Ki in assay [1] of 10 nM. For the same compound, in assay [2], the EC50 came to 17 nM.

As to `CCOC(=O)c1cnc(N2CCn3c(cc4cc(CO)c(S(C)(=O)=O)cc43)C2C(C)C)nc1C(F)(F)F` (racemic) [Compound E28, (±)-Ethyl 2-(8-(hydroxymethyl)-1-isopropyl-7-(methylsulfonyl)-3,4-dihydropyrazino[1,2-a]indol-2(1H)-yl)-4-(trifluoromethyl)pyrimidine-5-carboxylate], the affinity in assay [1] corresponds to a Ki of 5 nM. For the same compound, the midpoint of the response in assay [2], the EC50, lay at 72 nM.

For `COc1nc(N2CCn3c(nc4cc(CO)c(S(C)(=O)=O)cc43)[C@H]2C(C)C)ncc1C(F)(F)F` [Compound E18, (R)-(1-isopropyl-2-(4-methoxy-5-(trifluoromethyl)pyrimidin-2-yl)-7-(methylsulfonyl)-1,2,3,4-tetrahydrobenzo[4,5]imidazo[1,2-a]pyrazin-8-yl)methanol], in assay [1], the Ki was determined as 8 nM. The same compound returned a concentration giving a half-maximal response (EC50) in assay [2] of 24 nM.

Take `CC(C)[C@H]1c2nc3cc(CO)c(S(C)(=O)=O)cc3n2CCN1c1ncc(C(C)(C)O)c(C(F)(F)F)n1` (single isomer, unassigned) [Compound E7b]: the Ki in assay [1] is more than 2500 nM. Moreover, in assay [2], a half-maximal response (EC50) required 2180 nM.

For the origin of these results see US9073931B2, “Liver X receptor modulators” (Vitae Pharmaceuticals, Inc., priority 2012, dated 2015).
